Assay results as given in US6008356A, “Pharmaceutically available protoberberine salts derivatives, and protoberberine salts derivatives, and protoberberine derivatives and salts thereof” (priority 1998, dated 1999).
Converted amounts (≈) assume the structure as drawn. Read-outs that look alike come from different tables or passages of the source.

Columns and labels:
C. albicans ATCC 28838 = test: MIC; type: cell-based, Candida albicans; conditions: Candida albicans, ATCC28838
C. albicans OY 019 = test: MIC; type: cell-based, Candida albicans; conditions: Candida albicans, OY019
C. glabrata = test: MIC; type: cell-based; conditions: Nakaseomyces glabratus
C. krusei = test: MIC; type: cell-based; conditions: Pichia kudriavzevii
C. albicans U.K. = test: MIC; type: cell-based; conditions: Candida albicans
C. parapsilosis = test: MIC; type: cell-based; conditions: Lodderomyces parapsilosis
C. albicans OY 003 = test: MIC; type: cell-based, Candida albicans; conditions: Candida albicans, OY003
E. floccosum = test: MIC; type: cell-based, Epidermophyton floccosum; conditions: Epidermophyton floccosum
C. albicans KCTC 1940 = test: MIC; type: cell-based, Candida albicans; conditions: Candida albicans, KCTC1940
C. albicans IFO 1385 = test: MIC; type: cell-based, Candida albicans; conditions: Candida albicans, IFO1385
C. albicans ATCC 10231 = test: MIC; type: cell-based; conditions: Candida albicans, ATCC10231
C. albicans ATCC 11651 = test: MIC; type: cell-based, Candida albicans; conditions: Candida albicans, ATCC11651
C. glulliermendi = test: MIC; type: cell-based
Epidermophyton floccosum = test: Antifungal efficacy of creamy formulation against local fungal skin infection; type: in vivo, mouse (SKH/1, hairless, male); conditions: topical
Protocol: Specific pathogen free SKH/1 male mouse(Hairless) of which weight is 30-35 g and age is 5 weeks, was reared with sterilized water and feed for 12 night/day in the condition of 21-23° C. and of 50% relative humidity. Five mice were allocated by each group. After skin infection, each mouse was taken in separate cage. The strain of microorganism for infection(Epidermophyton floccosum) was cultivated on a flat medium of SDA(Sabouraud Dextrose Agar) for 5-7 days and after confirmation of macrocomidia, 3 ml of RPMI (Rosewell Park Memorial Institute) 1640 media per each flat medium was added thereto and then scraped well using loop to remove hyphae from media. The floating liquid was suspended briefly and then diluted with RPMI 1640 media to adjust the concentration of hyphae to 2×10^6 CFU/ml. Mouse was anesthetized and marked on back site(lumbosacral area) in a shape of circle of which diameter is 1.5 cm. Then, the inner part of marked skin was scratched with sand paper. The scratched part was covered with a filter paper to preserve inoculated microorganism for a long time and thereby stimulating the skin continuously. 0.2 ml of fungus solution of which concentration is adjusted as described above, was inoculated between the skin and filter paper. 5 Days after the inoculation, the filter paper was removed and the infection of skin was examined. The test formulations, 0.5% creamy formulations of the compounds Nos. 62 and 85, 1.0% creamy formulation of Terbinafine(Lamisile cream) and a placebo was applied on the infected areas in a same amount once a day for 5 days. The clinical evaluation on the change of the infected area in 5 days after the inoculation was performed and expressed numerically from 0 to 4. The daily change of the infected area was checked every day. The result of each group was compared with each other.
1: Mild erythema or small number of skin eruption
2: Well-demarcated erythema with scales or mild skin eruption of infected area
3: Wide area of marked skin eruption, scales, swelling or severe skin eruption with partial swelling and scales
4: The same as those of control, or severe skin eruption in entire lesion
The result was calculated as follows;
T: Average score of clinical evaluation in drug treated area
K: Average score of clinical evaluation in placebo control group
Moreover, the antifungal efficacies of the 0.5% creamy formulation of the compounds Nos. 29, 35, 60, 62, 63 and 85, and 1% creamy formulation of Terbinafme (Lamisil cream), which are measured by applying the above formulations on the skin infected with Epidermophyton floccosum of mouse which is the standard animal for the test of local fungal skin infection, i.e, Specific Pathogen Free SKH/1, are described in the following Table 4.

[1] = C. albicans ATCC 28838, read-out: MIC
[2] = C. albicans OY 019, read-out: MIC
[3] = C. albicans OY 003, read-out: MIC
[4] = C. albicans KCTC 1940, read-out: MIC
[5] = C. albicans IFO 1385, read-out: MIC
[6] = C. albicans ATCC 11651, read-out: MIC

SMILES	MIC (C. albicans ATCC 28838)	MIC (C. albicans OY 019)	MIC (C. glabrata)	MIC (C. krusei)	MIC (C. albicans U.K.)	MIC (C. parapsilosis)	MIC (C. albicans OY 003)	MIC (E. floccosum)	MIC (C. albicans KCTC 1940)	MIC (C. albicans IFO 1385)	MIC (C. albicans ATCC 10231)	MIC (C. albicans ATCC 11651)	MIC (C. glulliermendi)	MIC (C. albicans ATCC 28838; [1])	MIC (C. albicans OY 019; [2])	MIC (C. albicans OY 003; [3])	MIC (C. albicans KCTC 1940; [4])	MIC (C. albicans IFO 1385; [5])	MIC (C. albicans ATCC 11651; [6])	also measured
C[C@@H]1[C@H](O)[C@@H](C)/C=C/C=C/C=C/C=C/C=C/C=C/C=C/[C@H](O[C@@H]2O[C@H](C)[C@@H](O)[C@H](N)[C@@H]2O)C[C@@H]2O[C@](O)(C[C@@H](O)C[C@@H](O)[C@H](O)CC[C@@H](O)C[C@@H](O)CC(=O)O[C@H]1C)C[C@H](O)[C@H]2C(=O)O [Amphotericin B, reference compound]	3.12 µg/mL (≈ 3.38 µM)	0.4 µg/mL (≈ 0.433 µM)	1.56 µg/mL (≈ 1.69 µM)	0.78 µg/mL (≈ 0.844 µM)	3.12 µg/mL (≈ 3.38 µM)	3.12 µg/mL (≈ 3.38 µM)	0.78 µg/mL (≈ 0.844 µM)	12.5 µg/mL (≈ 13.5 µM)	0.78 µg/mL (≈ 0.844 µM)	1.56 µg/mL (≈ 1.69 µM)	1.56 µg/mL (≈ 1.69 µM)	1.56 µg/mL (≈ 1.69 µM)	1.56 µg/mL (≈ 1.69 µM)							
CCC(C)n1ncn(-c2ccc(N3CCN(c4ccc(OCC5COC(Cn6cncn6)(c6ccc(Cl)cc6Cl)O5)cc4)CC3)cc2)c1=O (stereo not shown) [Itraconazole, reference compound]	> 100 µg/mL	> 100 µg/mL					> 100 µg/mL	50 µg/mL (≈ 70.9 µM)	> 100 µg/mL	> 100 µg/mL		> 100 µg/mL								
Clc1ccc(COC(Cn2ccnc2)c2ccc(Cl)cc2Cl)c(Cl)c1 (stereo not shown) [Miconazole, reference compound]	0.78 µg/mL (≈ 1.87 µM)	1.56 µg/mL (≈ 3.75 µM)	> 100 µg/mL	3.12 µg/mL (≈ 7.51 µM)	> 100 µg/mL	3.12 µg/mL (≈ 7.51 µM)	1.56 µg/mL (≈ 3.75 µM)	6.25 µg/mL (≈ 15 µM)	1.56 µg/mL (≈ 3.75 µM)	3.12 µg/mL (≈ 7.51 µM)	6.25 µg/mL (≈ 15 µM)	3.12 µg/mL (≈ 7.51 µM)	3.12 µg/mL (≈ 7.51 µM)							
CN(C/C=C/C#CC(C)(C)C)Cc1cccc2ccccc12 [Terbinabin, Terbinafine, reference compound]																				Efficacy (%) 0 day later (Epidermophyton floccosum; 1.0% cream): 0%; Efficacy (%) 1 day later (Epidermophyton floccosum; 1.0% cream): 40.0%; Efficacy (%) 2 day later (Epidermophyton floccosum; 1.0% cream): 57.9%; Efficacy (%) 3 day later (Epidermophyton floccosum; 1.0% cream): 68.4%; Efficacy (%) 4 day later (Epidermophyton floccosum; 1.0% cream): 70.2%; Efficacy (%) 5 day later (Epidermophyton floccosum; 1.0% cream): 71.4%; Efficacy (%) 6 day later (Epidermophyton floccosum; 1.0% cream): 73.4%; Efficacy (%) 7 day later (Epidermophyton floccosum; 1.0% cream): 75.7%
COc1ccc2c(Cc3ccc(C)c(C)c3)c3[n+](cc2c1OC)CCc1cc2c(cc1-3)OCO2 [compound 18, 13-(3,4-dimethylbenzyl)berberine chloride]														3.12 µg/mL	6.25 µg/mL	6.25 µg/mL	6.25 µg/mL	12.5 µg/mL	3.12 µg/mL	
COc1cc(Cc2c3[n+](cc4c(OC)c(OC)ccc24)CCc2cc4c(cc2-3)OCO4)cc(OC)c1OC [compound 29, 13-(3,4,5-trimethoxybenzyl)berberine chloride]														3.12 µg/mL	6.25 µg/mL	6.25 µg/mL	1.56 µg/mL	25 µg/mL	1.56 µg/mL	Efficacy (%) 0 day later (Epidermophyton floccosum; 0.5% cream): 0%; Efficacy (%) 1 day later (Epidermophyton floccosum; 0.5% cream): 30.0%; Efficacy (%) 2 day later (Epidermophyton floccosum; 0.5% cream): 33.4%; Efficacy (%) 3 day later (Epidermophyton floccosum; 0.5% cream): 34.6%; Efficacy (%) 4 day later (Epidermophyton floccosum; 0.5% cream): 48.0%; Efficacy (%) 5 day later (Epidermophyton floccosum; 0.5% cream): 56.4%; Efficacy (%) 6 day later (Epidermophyton floccosum; 0.5% cream): 63.0%; Efficacy (%) 7 day later (Epidermophyton floccosum; 0.5% cream): 65.8%
